Measured values taken from patent US10213449B2, “Compositions and methods for treating medulloblastoma” (The Board of Trustees of the Leland Stanford Junior …, priority 2016, dated 2019).

Legend:
[1] = system: Brd4 occupancy at Gli1 and Gli2 promoters; assay: Brd4 ChIP-qPCR in NIH3T3s stimulated with SHH; format: cell-based, mouse
Protocol: It was therefore investigated whether CK2 regulates Brd4-mediated transactivation of the Gli promoters. Chromatin immunoprecipitation (ChIP) was performed in NIH3T3s stimulated with SHH using anti-Brd4 antibodies, followed by quantitative PCR (qPCR) of regions flanking the transcription start sites within the Gli1 and Gli2 promoters.
Wildtype CD1-Elite (Charles River strain 482) P7 mice were randomized to control or treatment groups then given two injections of DMSO (control) or TBB (30 mg/kg) q12h×2. Mice were sacrificed and GNPs were isolated as described in “GNP isolation”. Chomatin immunoprecipitation was performed as previously described. GNPs were cross-linked in 1% formaldehyde for 10 minutes at RT then fixation was stopped by adding 2.5M glycine for 10 minutes. Samples were washed and stored at −80 until all samples were collected. Crosslinked cells were later thawed on ice, incubated in chilled RIPA for 10 min and sonicated 7×15 min. To prepare blocking beads, 60 uL/sample of protein G beads (Roche 11719416001) were incubated with 5% BSA on a rocker at 4 degrees for at least 1 h. […] ChIP and input DNA was quantified using Qubit DS DNA HS assay as per manufacturer's protocol (ThermoFisher Q32851). […] Library was quantified via Qubit DS DNA HS assay and library quality was determined using an Agilent 2100 Bioanalyzer. […]

Gli2 = Gli2 stability; format: cell-based, mouse
Protocol: Epistasis studies were next performed to determine where in the hedgehog pathway CK2 acts. The effect of TBB was examined: (i) in NIH 3T3s stimulated with SAG, a SMO agonist, (ii) in Sufu−/− mouse embryonic fibroblasts (MEF), and (iii) in NIH 3T3 cells overexpressing GLI2 (FIG. 3d-3f).
Gli2ΔN cells were lysed with RIPA buffer (sc-24948, Santa Cruz Biotechnology) supplemented with Halt Protease & Phosphatase Inhibitor (Thermo #1861218) for 30 min on ice and lysates were cleared by centrifugation at 13000 rpm, 15 min at 4° C. Supernatants were incubated with 6× Lamelli sample buffer (10570021-1, BioWorld) at 95° C. for 5 min. The samples were then separated with a 7% SDS-PAGE gel and immunoblotted with anti-Gli2 (AF3635-SP, R&D) and anti-β-tubulin (ab6046, Abcam).

In the case of `Brc1c(Br)c(Br)c2[nH]nnc2c1Br` [TBB, 4,5,6,7-tetrabromo-2H-benzotriazole], the “Brd4 occupancy at Gli1 promoter” value [1] is reported as “blocked”, the “Brd4 occupancy at Gli2 promoter” value [1] is reported as “blocked” and the “GLI2 protein driven off the CMV promoter-expression vector” value (Gli2; Gli2ΔN cells after TBB treatment) is reported as “no decrease”. The “endogenous, full length Gli2 mRNA levels” value (Gli2; after TBB treatment) was “decreases”.
